Measurements as given in patent publication US20250353841A1 (BIOGEN MA INC., priority 2022, published 2025).
pIC50: −log10 of the molar value.

Tested on: mutant Huntington (HTT) protein
Assay: HTT Mutant HTRF iPSC assay (mHTT protein lowering)
Assay type: cell-based
Conditions: human iPSC derived from a HTT patient with a poly-Q49 mutation

SMILES	pIC50
Cc1cn2nc(-c3cc(F)c4nn(C5C[C@@H](C)N[C@H](C)C5)nc4c3)cc(C)c2n1 (relative stereo) [Compound 393, 6-(2,8-dimethylimidazo[1,2-b]pyridazin-6-yl)-2-((2R,6R)-2,6-dimethylpiperidin-4-yl)-4-fluoro-2H-benzo[d][1,2,3]triazole]	6.00 to 7.00
CCN1CC[C@@H](N(C)c2nc3c(F)cc(-c4cc(C)c5nc(C)cn5n4)cc3o2)C[C@@H]1C (relative stereo) [Compound 488, rel-6-(2,8-dimethylimidazo[1,2-b]pyridazin-6-yl)-N-((2R,4S)-1-ethyl-2-methylpiperidin-4-yl)-4-fluoro-N-methylbenzo[d]oxazol-2-amine]	6.00 to 7.00
Cn1cc2cc(-c3cc(F)c4nc([C@H]5CNCCO5)cn4c3)cc(F)c2n1 (single isomer, unassigned) [Compound 70]	5.05 to 6.00
Cn1cc2cc(-c3cc(F)c4nc([C@@H]5CNCCO5)cn4c3)cc(F)c2n1 (single isomer, unassigned) [Compound 71]	6.00 to 7.00
Cc1cn2nc(-c3cc(F)c4nc([C@H]5CCC6(CCNCC6)C5)cn4c3)cc(C)c2n1 (single isomer, unassigned) [Compound 114]	> 7.00
Cc1cn2nc(-c3cc(F)c4nc([C@]56CC[C@@H](C5)NC6)cn4c3)cc(C)c2n1 (single isomer, unassigned) [Compound 115]	6.00 to 7.00
Cc1cn2nc(-c3cc(F)c4nc([C@@]56CC[C@H](C5)NC6)cn4c3)cc(C)c2n1 (single isomer, unassigned) [Compound 116]	5.05 to 6.00
Cc1cn2nc(-c3cc(F)c4nc([C@H]5CCCNC5)cn4c3)cc(C)c2n1 (single isomer, unassigned) [Compound 117]	6.00 to 7.00
Cc1cn2nc(-c3cc(F)c4nc([C@@H]5CCCNC5)cn4c3)cc(C)c2n1 (single isomer, unassigned) [Compound 118]	> 7.00
Cc1cn2nc(-c3cc(F)c4nc([C@@H]5CCC6(CCNCC6)C5)cn4c3)cc(C)c2n1 (single isomer, unassigned) [Compound 119]	> 7.00
Cc1cn2nc(-c3cc(F)c4nc([C@H]5C[C@@]6(CN[C@H](C)C6)C5)cn4c3)cc(C)c2n1 (single isomer, unassigned) [Compound 176, 6-(8-fluoro-2-((2S*,4r,7S*)-7-methyl-6-azaspiro[3.4]octan-2-yl)imidazo[1,2-a]pyridin-6-yl)-2,8-dimethylimidazo[1,2-b]pyridazine]	> 7.00
Cc1cn2nc(-c3cc(F)c4nc([C@H]5C[C@]6(CN[C@@H](C)C6)C5)cn4c3)cc(C)c2n1 (single isomer, unassigned) [Compound 177, 6-(8-fluoro-2-((2S*,4r,7S*)-7-methyl-6-azaspiro[3.4]octan-2-yl)imidazo[1,2-a]pyridin-6-yl)-2,8-dimethylimidazo[1,2-b]pyridazine]	> 7.00
Cc1cn2nc(-c3cc(F)c4nc([C@H]5C[C@]6(CN[C@H](C)C6)C5)cn4c3)cc(C)c2n1 (single isomer, unassigned) [Compound 178, 6-(8-fluoro-2-((2R*,4r,7R*)-7-methyl-6-azaspiro[3.4]octan-2-yl)imidazo[1,2-a]pyridin-6-yl)-2,8-dimethylimidazo[1,2-b]pyridazine]	> 7.00
Cc1cn2nc(-c3cc(F)c4nc([C@@H]5CCNC6(CC6)C5)cn4c3)cc(C)c2n1 (single isomer, unassigned) [Compound 179]	6.00 to 7.00
Cc1cn2nc(-c3cc(F)c4nc([C@H]5CCNC6(CC6)C5)cn4c3)cc(C)c2n1 (single isomer, unassigned) [Compound 180]	> 7.00
Cc1cn2nc(-c3cc(F)c4nc(C5CCN(C)C5)cn4c3)cc(C)c2n1 (single isomer, unassigned) [Compound 186]	6.00 to 7.00
Cc1cn2nc(-c3cc(F)c4nc([C@@H]5CCNC5)cn4c3)cc(C)c2n1 (single isomer, unassigned) [Compound 189]	> 7.00
Cc1cn2nc(-c3cc(F)c4nc([C@H]5CCNC5)cn4c3)cc(C)c2n1 (single isomer, unassigned) [Compound 190]	6.00 to 7.00
Cc1cn2nc(-c3cc(F)c4nc(C5CCN(C)C6(CC6)C5)cn4c3)cc(C)c2n1 (single isomer, unassigned) [Compound 209]	> 7.00
Cc1cn2nc(-c3cc(F)c4nc(C5CCNC(C)(C)C5)cn4c3)cc(C)c2n1 (single isomer, unassigned) [Compound 234]	> 7.00
Cc1cn2nc(-c3cc(F)c4nc(C5CCNC(C)(C)C5)cn4c3)cc(C)c2n1 (single isomer, unassigned) [Compound 235]	> 7.00
Cc1cn2nc(-c3cc(F)c4nc(NC(=O)C5CCCN(C)C5)cn4c3)cc(C)c2n1 (single isomer, unassigned) [Compound 277]	> 7.00

SMILES	pIC50
Cc1cn2nc(-c3cc(F)c4nc(NC(=O)C5CCCN(C)C5)cn4c3)cc(C)c2n1 (single isomer, unassigned) [Compound 278]	> 7.00
Cc1cn2nc(-c3cc(F)c4nc(NC(=O)C5CCCNC5)nn4c3)cc(C)c2n1 (single isomer, unassigned) [Compound 315]	6.00 to 7.00
Cc1cn2nc(-c3cc(F)c4nc(NC(=O)C5CCCNC5)nn4c3)cc(C)c2n1 (single isomer, unassigned) [Compound 316]	6.00 to 7.00
Cc1cn2nc(-c3cc(F)c4nc(NC(=O)C5CCCN(C)C5)nn4c3)cc(C)c2n1 (single isomer, unassigned) [Compound 325]	6.00 to 7.00
Cc1cn2nc(-c3cc(F)c4nc(NC(=O)C5CCCN(C)C5)nn4c3)cc(C)c2n1 (single isomer, unassigned) [Compound 326]	6.00 to 7.00
Cc1cn2nc(-c3cc(F)c4nc(C(=O)NC5CCNC6(CC6)C5)cn4c3)cc(C)c2n1 (single isomer, unassigned) [Compound 348]	6.00 to 7.00
Cc1cn2nc(-c3cc(F)c4nc(N(C)C5CCNC(C)(C)C5)oc4c3)cc(C)c2n1 (single isomer, unassigned) [Compound 508]	6.00 to 7.00
Cc1cn2nc(-c3cc(F)c4nc(N(C)C5CCNC(C)(C)C5)oc4c3)cc(C)c2n1 (single isomer, unassigned) [Compound 509]	6.00 to 7.00
CN[C@@H]1CCC[C@H](c2cn3cc(-c4cc(F)c5nn(C)cc5c4)cc(F)c3n2)C1 (stereo in doubt) [Compound 162, rel-(1R,3S)-3-(8-fluoro-6-(7-fluoro-2-methyl-2H-indazol-5-yl)imidazo[1,2-a]pyridin-2-yl)-N-methylcyclohexan-1-amine]	6.00 to 7.00
CN[C@H]1CCC[C@@H](c2cn3cc(-c4cc(F)c5nn(C)cc5c4)cc(F)c3n2)C1 (stereo in doubt) [Compound 163, rel-(1R,3S)-3-(8-fluoro-6-(7-fluoro-2-methyl-2H-indazol-5-yl)imidazo[1,2-a]pyridin-2-yl)-N-methylcyclohexan-1-amine]	6.00 to 7.00
Cc1cn2nc(-c3cc(F)c4nc(NC(=O)[C@H]5CN[C@@H]5C)cn4c3)cc(C)c2n1 (stereo in doubt) [Compound 286, rel-(2R,3S)-N-(6-(2,8-dimethylimidazo[1,2-b]pyridazin-6-yl)-8-fluoroimidazo[1,2-a]pyridin-2-yl)-2-methylazetidine-3-carboxamide]	> 7.00
Cc1cn2nc(-c3cc(F)c4nc(NC(=O)[C@@H]5CN[C@H]5C)cn4c3)cc(C)c2n1 (stereo in doubt) [Compound 287, rel-(2R,3S)-N-(6-(2,8-dimethylimidazo[1,2-b]pyridazin-6-yl)-8-fluoroimidazo[1,2-a]pyridin-2-yl)-2-methylazetidine-3-carboxamide]	> 7.00
CCN1CC[C@H](N(C)c2nc3c(F)cc(-c4cc(C)c5nc(C)cn5n4)cc3o2)C[C@@H]1C (stereo in doubt) [Compound 486, rel-6-(2,8-dimethylimidazo[1,2-b]pyridazin-6-yl)-N-((2R,4R)-1-ethyl-2-methylpiperidin-4-yl)-4-fluoro-N-methylbenzo[d]oxazol-2-amine]	> 7.00
CCN1CC[C@@H](N(C)c2nc3c(F)cc(-c4cc(C)c5nc(C)cn5n4)cc3o2)C[C@H]1C (stereo in doubt) [Compound 487, rel-6-(2,8-dimethylimidazo[1,2-b]pyridazin-6-yl)-N-((2R,4R)-1-ethyl-2-methylpiperidin-4-yl)-4-fluoro-N-methylbenzo[d]oxazol-2-amine]	> 7.00
Cc1cn2nc(-c3cc(F)c4nc(C5CCNCC5)cn4c3)cc(C)c2n1 [Compound 1]	> 7.00
Cc1cn2nc(-c3cc(F)c4nc(C5CCNCC5)cn4c3)ccc2n1 [Compound 2, 6-(8-fluoro-2-(piperidin-4-yl)imidazo[1,2-a]pyridin-6-yl)-2-methylimidazo[1,2-b]pyridazine]	> 7.00
CCN1CCC(c2cn3cc(-c4ccc5nc(C)cn5n4)cc(F)c3n2)CC1 [Compound 3, 6-(2-(1-ethylpiperidin-4-yl)-8-fluoroimidazo[1,2-a]pyridin-6-yl)-2-methylimidazo[1,2-b]pyridazine]	> 7.00
Cc1cn2nc(-c3cc(F)c4nc(C5CCN(C)CC5)cn4c3)ccc2n1 [Compound 4, 6-[8-fluoro-2-(1-methyl-4-piperidyl)imidazo[1,2-a]pyridin-6-yl]-2-methyl-imidazo[1,2-b]pyridazine]	6.00 to 7.00
CCN1CCC(c2cn3cc(-c4cc(F)c5nn(C)cc5c4)cc(F)c3n2)CC1 [Compound 5, 5-(2-(1-ethylpiperidin-4-yl)-8-fluoroimidazo[1,2-a]pyridin-6-yl)-7-fluoro-2-methyl-2H-indazole]	6.00 to 7.00
Cc1cc(-c2cc(F)c3nc(C4CCN(C)CC4)cn3c2)cc2cn(C)nc12 [Compound 6, 5-(8-fluoro-2-(1-methylpiperidin-4-yl)imidazo[1,2-a]pyridin-6-yl)-2,7-dimethyl-2H-indazole]	6.00 to 7.00
CCN1CCC(c2cn3cc(-c4ccc5nn(C)cc5c4)cc(F)c3n2)CC1 [Compound 7, 5-(2-(1-ethylpiperidin-4-yl)-8-fluoroimidazo[1,2-a]pyridin-6-yl)-2-methyl-2H-indazole]	5.05 to 6.00
CCN1CCC(c2cn3cc(-c4ccc5nc(C)cn5c4)cc(F)c3n2)CC1 [Compound 8, 2-(1-ethylpiperidin-4-yl)-8-fluoro-2′-methyl-6,6′-biimidazo[1,2-a]pyridine]	5.05 to 6.00
